The text below walks through data of US6949586B2, “Synergistic composition of trans-tetracos-15-enoic acid and Apocynin and method of treatment for hepatotoxicity” (Council of Scientific Research, priority 2002, dated 2005).

Holding throughout (type): in vivo
In assay [1] the test system is bile flow and bile solids. Kind of assay: Chloretic activity: bile flow and bile solids after bile duct cannulation. The following applies: rats, 50 mg kg−1 i.d.; bile collected 0-5 hours; mean ± SE. An excerpt:
The liver, by producing bile, plays an important role in digestion. The presence of bile in the intestine is necessary to accomplish the digestion and absorption of fats as well as absorption of the fat-soluble vitamins—A, D, E & K. Bile is also an important vehicle of excretion. It removes many drugs, toxins, bile pigments and various inorganic substances either derived from the diet or synthesized by the body as cholesterol or as cholic acid.
Effect on the liver bile flow of test drug and that of vehicle is carried out after cannulating the bile duct in normal anaesthesied rats. Bile collected is from each animal from 0-5 hours (Klaassen, 1969, Donal et al. 1953). (Table 5)

For assay [2], the system named is Acetaminophen (APAP) induced hepatotoxicity. Kind of assay: Paracetamol (Acetaminophen, APAP) induced hepatotoxicity after diethyl-ether inhalation. Conditions: mice, 50 mg kg−1 p.o., mean ± S.E. From the text:
Paracetamol (APAP, Acetaminophen): It is a therapeutic agent widely used as analgesic/antipyretic drug. When taken in large doses it causes hepatic necrosis which leads to biochemical changes having clinical features similar to those of acute viral hepatitis in humans (Proudfoot and Wright, 1970). The similar effect is observed in animals. The toxic effect can be potentiated if it is given several hours after the anesthetic ether inhalation (Wells et. al., 1986). Liver injury is induced by injecting paracetamol (200 mg.kg^-1) interaperitoneally in normal saline (pH 9.4) six hour after inhalation of anesthetic ether (4 ml/4 min/6 animals) in a closed chamber. The control animals received the equal volume of vehicle. […] (Table 2) GPT and GOT: Pyruvate formed by transamination reaction is determined spectrophotometrically after reaction with 2,4-dinitrophenylhydrazine (Reitman and Frankel, 1957). ALP: p-nitrophenol formed in alkaline medium is measured spectrophotometrically using p-nitrophenyl phosphate as substrate (Walter and Schutt, 1974). Bilirubin : Total bilirubin is measured by diazotization reaction with NaNO2 (Malloy and Evelyn, 1937) Triglycerides: Triglycerides from serum are extracted with isopropanol and sopanified with KOH. The liberated glycerol is converted to formaldehyde by periodate and determined after reaction with acetyl acetone. […]

Assay [3] has as its system galactosamine, paracetamol and CCl4 as hepatotoxins. Description: Earlier RRL Jammu study of hepatoprotective effect against galactosamine, paracetamol and CCl4. The following applies: synthesized constituent; silymarin as reference material.

As to `C[C@H](CCC(=O)O)[C@H]1CC[C@H]2[C@@H]3C(=O)C[C@@H]4CC(=O)CC[C@]4(C)[C@H]3CC(=O)[C@]12C` [DHC, Dehydrocholic acid], in assay [1], the “Bile flow (ml %), % Increase (as compared to normal)” value is 38.40 ± 2.76% and the “Bile solids (mg %), % Increase (as compared to normal)” value amounted to 28.13 ± 3.89%.
On to `CCCCCCCC/C=C/CCCCCCCCCCCCCC(=O)O` [TCA, trans-tetracos-15-enoic acid], for which the “Hepatic Lipid Peroxidation” value in assay [2] turned out to be 44.24 ± 2.22 n moles MDA/g liver. The “hepatoprotective effect against galactosamine, paracetamol and CCl4 as hepatotoxins” value in assay [3] is listed as “dose related hepatoprotective effect”.
